{
  "source": "ChEMBL document CHEMBL1201862",
  "about": "“PubChem BioAssay data set” (2004)",
  "assay_in_all_cases": "DTP human tumour cell line panel, 48 h",
  "key": {"[1]": {"test_system": "U-251"}, "[2]": {"test_system": "ACHN"}, "[3]": {"test_system": "SW-620"}, "[4]": {"test_system": "OVCAR-5"}, "[5]": {"test_system": "DMS-114"}, "[6]": {"test_system": "HOP-92"}, "[7]": {"test_system": "HOP-62"}, "[8]": {"test_system": "SF-295"}, "[9]": {"test_system": "RXF 631"}, "[10]": {"test_system": "DLD-1"}, "[11]": {"test_system": "SK-OV-3"}, "[12]": {"test_system": "RPMI-8226"}, "[13]": {"test_system": "SR"}, "[14]": {"test_system": "COLO 205"}, "[15]": {"test_system": "DMS-273"}, "[16]": {"test_system": "M14"}, "[17]": {"test_system": "M19-MEL"}, "[18]": {"test_system": "HCC 2998"}, "[19]": {"test_system": "OVCAR-3"}, "[20]": {"test_system": "NCI-H23"}, "[21]": {"test_system": "SN12C"}, "[22]": {"test_system": "UO-31"}, "[23]": {"test_system": "OVCAR-8"}, "[24]": {"test_system": "SF-539"}, "[25]": {"test_system": "UACC-62"}, "[26]": {"test_system": "HT-29"}, "[27]": {"test_system": "EKVX"}, "[28]": {"test_system": "SF-268"}, "[29]": {"test_system": "IGROV-1"}, "[30]": {"test_system": "UACC-257"}, "[31]": {"test_system": "KM12"}, "[32]": {"test_system": "SK-MEL-5"}, "[33]": {"test_system": "HCT-116"}, "[34]": {"test_system": "Malme-3M"}, "[35]": {"test_system": "A498"}, "[36]": {"test_system": "NCI-H460"}, "[37]": {"test_system": "NCI-H522"}, "[38]": {"test_system": "KM-20L2"}, "[39]": {"test_system": "OVCAR-4"}, "[40]": {"test_system": "NCI-H226"}, "[41]": {"test_system": "K562"}, "[42]": {"test_system": "XF498"}, "[43]": {"test_system": "SNB-75"}, "[44]": {"test_system": "HL-60"}, "[45]": {"test_system": "HOP-18"}, "[46]": {"test_system": "MOLT-4"}, "[47]": {"test_system": "SNB-19"}, "[48]": {"test_system": "CCRF-CEM"}, "[49]": {"test_system": "SK-MEL-28"}, "[50]": {"test_system": "LOX IMVI"}, "[51]": {"test_system": "HCT-15"}, "[52]": {"test_system": "A549"}, "[53]": {"test_system": "SNB-78"}, "[54]": {"test_system": "TK-10"}, "[55]": {"test_system": "786-0"}, "[56]": {"test_system": "SK-MEL-2"}, "[57]": {"test_system": "LXFL 529"}, "[58]": {"test_system": "CAKI-1"}, "[59]": {"test_system": "RXF 393"}},
  "note": "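These data come from cells grown in 96-well plates and exposed to compound for 48 hours at five concentrations. GI50: concentration for 50% inhibition of growth.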 Active and inactive are the calls of the source. Cut-off read from the data, not from the text of the source: active = GI50 up to about 1.1 µM and inactive = higher.",
  "data": [
    {"smiles": "O=C(CCN(C(=O)O)S(=O)(=O)c1ccc(NC(=O)c2ccccc2)cc1)Nc1ccccc1", "values": [
      {"measurement": "GI50", "setting": "[1]", "value": "> 75.7 µM (inactive)"},
      {"measurement": "GI50", "setting": "[2]", "value": "> 100 µM (inactive)"},
      {"measurement": "GI50", "setting": "[3]", "value": "> 55 µM (inactive)"},
      {"measurement": "GI50", "setting": "[4]", "value": "> 100 µM (inactive)"},
      {"measurement": "GI50", "setting": "[5]", "value": "> 56 µM (inactive)"},
      {"measurement": "GI50", "setting": "[6]", "value": "> 100 µM (inactive)"},
      {"measurement": "GI50", "setting": "[7]", "value": "> 100 µM (inactive)"},
      {"measurement": "GI50", "setting": "[8]", "value": "> 100 µM (inactive)"},
      {"measurement": "GI50", "setting": "[9]", "value": "> 100 µM (inactive)"},
      {"measurement": "GI50", "setting": "[10]", "value": "> 79.8 µM (inactive)"},
      {"measurement": "GI50", "setting": "[11]", "value": "> 100 µM (inactive)"},
      {"measurement": "GI50", "setting": "[12]", "value": "> 64.1 µM (inactive)"},
      {"measurement": "GI50", "setting": "[13]", "value": "15.8 µM (inactive)"},
      {"measurement": "GI50", "setting": "[14]", "value": "> 61.4 µM (inactive)"},
      {"measurement": "GI50", "setting": "[15]", "value": "> 65.3 µM (inactive)"},
      {"measurement": "GI50", "setting": "[16]", "value": "> 100 µM (inactive)"},
      {"measurement": "GI50", "setting": "[17]", "value": "> 76.9 µM (inactive)"},
      {"measurement": "GI50", "setting": "[18]", "value": "> 100 µM (inactive)"},
      {"measurement": "GI50", "setting": "[19]", "value": "> 100 µM (inactive)"},
      {"measurement": "GI50", "setting": "[20]", "value": "> 100 µM (inactive)"},
      {"measurement": "GI50", "setting": "[21]", "value": "> 100 µM (inactive)"},
      {"measurement": "GI50", "setting": "[22]", "value": "> 100 µM (inactive)"},
      {"measurement": "GI50", "setting": "[23]", "value": "> 96.2 µM (inactive)"},
      {"measurement": "GI50", "setting": "[24]", "value": "> 100 µM (inactive)"},
      {"measurement": "GI50", "setting": "[25]", "value": "> 61.9 µM (inactive)"},
      {"measurement": "GI50", "setting": "[26]", "value": "> 94.2 µM (inactive)"},
      {"measurement": "GI50", "setting": "[27]", "value": "> 100 µM (inactive)"},
      {"measurement": "GI50", "setting": "[28]", "value": "> 100 µM (inactive)"},
      {"measurement": "GI50", "setting": "[29]", "value": "> 100 µM (inactive)"},
      {"measurement": "GI50", "setting": "[30]", "value": "> 65.3 µM (inactive)"},
      {"measurement": "GI50", "setting": "[31]", "value": "> 100 µM (inactive)"},
      {"measurement": "GI50", "setting": "[32]", "value": "> 100 µM (inactive)"},
      {"measurement": "GI50", "setting": "[33]", "value": "> 56.6 µM (inactive)"},
      {"measurement": "GI50", "setting": "[34]", "value": "> 100 µM (inactive)"},
      {"measurement": "GI50", "setting": "[35]", "value": "> 100 µM (inactive)"},
      {"measurement": "GI50", "setting": "[36]", "value": "> 61.9 µM (inactive)"},
      {"measurement": "GI50", "setting": "[37]", "value": "> 100 µM (inactive)"},
      {"measurement": "GI50", "setting": "[38]", "value": "> 100 µM (inactive)"},
      {"measurement": "GI50", "setting": "[39]", "value": "> 100 µM (inactive)"},
      {"measurement": "GI50", "setting": "[40]", "value": "> 100 µM (inactive)"},
      {"measurement": "GI50", "setting": "[41]", "value": "> 59.3 µM (inactive)"},
      {"measurement": "GI50", "setting": "[42]", "value": "> 100 µM (inactive)"},
      {"measurement": "GI50", "setting": "[43]", "value": "> 100 µM (inactive)"},
      {"measurement": "GI50", "setting": "[44]", "value": "> 61.8 µM (inactive)"},
      {"measurement": "GI50", "setting": "[45]", "value": "> 17.1 µM (inactive)"},
      {"measurement": "GI50", "setting": "[46]", "value": "> 64.6 µM (inactive)"},
      {"measurement": "GI50", "setting": "[47]", "value": "> 100 µM (inactive)"},
      {"measurement": "GI50", "setting": "[48]", "value": "> 61.7 µM (inactive)"},
      {"measurement": "GI50", "setting": "[49]", "value": "> 100 µM (inactive)"},
      {"measurement": "GI50", "setting": "[50]", "value": "> 57.7 µM (inactive)"},
      {"measurement": "GI50", "setting": "[51]", "value": "> 58.6", "unit": "µM"},
      {"measurement": "GI50", "setting": "[52]", "value": "> 46.5 µM (inactive)"},
      {"measurement": "GI50", "setting": "[53]", "value": "> 100 µM (inactive)"},
      {"measurement": "GI50", "setting": "[54]", "value": "> 100 µM (inactive)"},
      {"measurement": "GI50", "setting": "[55]", "value": "> 100 µM (inactive)"},
      {"measurement": "GI50", "setting": "[56]", "value": "> 100 µM (inactive)"},
      {"measurement": "GI50", "setting": "[57]", "value": "> 100 µM (inactive)"},
      {"measurement": "GI50", "setting": "[58]", "value": "> 100 µM (inactive)"},
      {"measurement": "GI50", "setting": "[59]", "value": "> 100 µM (inactive)"}
    ]}
  ]
}
